According to article PMC12024397, “Structure–Activity Study of the Antimicrobial Lipopeptide Humimycin A and Screening Against Multidrug-Resistant Staphylococcus aureus” (Antibiotics, 2025):
Converted amounts (≈) assume the structure as drawn. Non-standard residues stand in square brackets, D forms with d. Residues, ends and D or L forms follow the SMILES beside them. *: point of attachment. Tetradecanoyl(3R-OH) = CCCCCCCCCCC[C@@H](O)CC(=O)*; Tetradecanoyl(3S-OH) = CCCCCCCCCCC[C@H](O)CC(=O)*

Key:
S. aureus strain 4-121 = conditions: broth microdilution, triplicate; isolate 4-121, no resistance profile listed
Excerpt: (§1) The bacterial strains used in this study included S. aureus ATCC 29213 and ATCC 43300, B. subtilis ATCC […], E. coli ATCC 25922, P. aeruginosa ATCC 27853, and S. enterica serovar Typhimurium ATCC 14028, all of which were purchased from Cedarlane, Canada. Additionally, a collection of 19 S. aureus strains, ranging from antibiotic-sensitive to multidrug-resistant, and originating from clinical intramammary infections (IMI), was selected from the Mastitis Pathogen Culture Collection of the Canadian Bovine Mastitis Research Network (Université de Montréal, St-Hyacinthe, QC, Canada). These strains, previously used in other studies, were also included in this work. S. aureus ATCC 29213 and B. subtilis ATCC 6633 were cultured in Tryptic Soy Broth (TSB) (Difco^TM, Becton, Dickenson & Company, Spark, MD, USA). E. coli ATCC 25922 and P. aeruginosa ATCC 27853 were grown in Luria–Bertani (LB) broth (Fisher Scientific, Fair Lawn, NJ, USA). S. enterica serovar Typhimurium ATCC 14028 was propagated in Nutrient Broth (NB) (Oxoid, Basingstoke, UK). All bacterial cultures were incubated overnight at 37 °C before use and during the performance of assays.
(§2) MIC assays were performed using the broth microdilution method in 96-well plates. Analogs were serially diluted two-fold from stock solutions. The plates were incubated overnight at 37 °C and bacterial growth was monitored by measuring the absorbance at 595 nm over 18–20 h and the assay was performed in triplicate.

S. aureus strain 4-131 = conditions: broth microdilution, triplicate; isolate 4-131, no resistance profile listed
Excerpt: as §1, §2

S. aureus strain 4-133 = conditions: broth microdilution, triplicate; isolate 4-133, resistance PEN-CEF-CTX-FOX-CIP-CHL-KAN-GEN
Excerpt: as §1, §2

S. aureus strain 4-134 = conditions: broth microdilution, triplicate; isolate 4-134, resistance PEN-VAN-CEF-CTX-FOX-ERY-CC-TET-KAN-GEN-STR
Excerpt: as §1, §2

S. aureus strain 4-138 = conditions: broth microdilution, triplicate; isolate 4-138, no resistance profile listed
Excerpt: as §1, §2

S. aureus strain 4-139 = conditions: broth microdilution, triplicate; isolate 4-139, resistance PEN-ERY-CC-TET-KAN
Excerpt: as §1, §2

S. aureus strain 4-140 = conditions: broth microdilution, triplicate; isolate 4-140, resistance TET
Excerpt: as §1, §2

S. aureus strain 4-144 = conditions: broth microdilution, triplicate; isolate 4-144, resistance PEN-AMC-CEF-CTX-FOX-CIP-CHL-ERY-TET
Excerpt: as §1, §2

S. aureus strain 4-153 = conditions: broth microdilution, triplicate; isolate 4-153, no resistance profile listed
Excerpt: as §1, §2

S. aureus strain 4-159 = conditions: broth microdilution, triplicate; isolate 4-159, no resistance profile listed
Excerpt: as §1, §2

S. aureus strain 4-172 = conditions: broth microdilution, triplicate; isolate 4-172, resistance PEN-AMC-CEF-CTX-FOX
Excerpt: as §1, §2

S. aureus strain 4-173 = conditions: broth microdilution, triplicate; isolate 4-173, no resistance profile listed
Excerpt: as §1, §2

[1] = critical micelle concentration, Nile Red fluorescence; type: physicochemical; conditions: overnight equilibration, intersection of linear fits of fluorescence vs log concentration
Method: Figure 4 CMC measurements of synthetic humimycin analogs 12R, 12S, 13R, and 13S. The CMC is the concentration at the intersection of the linear fits to the fluorescence intensity against log 10 concentration of peptide. Black circle: monomer; red circle: micelle.
The CMC of synthesized analogs 12R, 12S, 13R, and 13S was determined using the Nile Red fluorescence method, which takes advantage of the dye’s enhanced fluorescence emission in hydrophobic environments. A 500 μM stock solution of Nile Red was prepared in DMSO. Aliquots of 10 μL of this stock solution were added to each well and kept in the dark. Peptide solutions (200 μL) at various concentrations were then added to the well and allowed to equilibrate with the Nile Red overnight. Fluorescence emission spectra were recorded from 485 nm to 636 nm on a SpectraMax i3 spectrofluorometer with an excitation and emission bandwidth 9 nm and 15 nm, respectively. The ratio of the emission intensity was calculated for each peptide concentration and plotted against the logarithm of the peptide concentration. The CMC was determined from the intersection of the linear fits to the data points below and above the transition region in the plot. Tween-20 was used as positive control.

Compound `CCCCCCCCCCC[C@@H](O)CC(=O)N[C@@H](Cc1c[nH]c2ccccc12)C(=O)N[C@@H](CO)C(=O)N[C@H](Cc1c[nH]c2ccccc12)C(=O)N[C@@H](Cc1ccccc1)C(=O)N[C@@H](C(=O)N[C@H](C(=O)N[C@H](C(=O)O)C(C)C)C(C)C)[C@H](C)O` [12R] ({Tetradecanoyl(3R-OH)}-WS[dW]F[dT]VV-OH) has an MIC (S. aureus strain 4-121) of 32 µg/mL (≈ 27.8 µM), an MIC (S. aureus strain 4-131) of over 256 µg/mL and an MIC (S. aureus strain 4-133) of 256 µg/mL (≈ 223 µM). It also gave an MIC (S. aureus strain 4-134) of over 256 µg/mL, an MIC (S. aureus strain 4-138) of 4 µg/mL (≈ 3.48 µM) and an MIC (S. aureus strain 4-139) of 4 µg/mL (≈ 3.48 µM). For the same compound, the MIC (S. aureus strain 4-140) was 8 µg/mL (≈ 6.95 µM), the MIC (S. aureus strain 4-144) was 8 µg/mL (≈ 6.95 µM) and the MIC (S. aureus strain 4-153) was 16 µg/mL (≈ 13.9 µM). The MIC (S. aureus strain 4-159) was 8 µg/mL (≈ 6.95 µM), the MIC (S. aureus strain 4-172) was 8 µg/mL (≈ 6.95 µM) and the MIC (S. aureus strain 4-173) was 8 µg/mL (≈ 6.95 µM). The CMC [1] was “approximately 60 μg/mL”.

Work on `CCCCCCCCCCC[C@H](O)CC(=O)N[C@@H](Cc1c[nH]c2ccccc12)C(=O)N[C@@H](CO)C(=O)N[C@H](Cc1c[nH]c2ccccc12)C(=O)N[C@@H](Cc1ccccc1)C(=O)N[C@@H](C(=O)N[C@H](C(=O)N[C@H](C(=O)O)C(C)C)C(C)C)[C@H](C)O` [12S] ({Tetradecanoyl(3S-OH)}-WS[dW]F[dT]VV-OH) yielded an MIC (S. aureus strain 4-121) of 32 µg/mL (≈ 27.8 µM), an MIC (S. aureus strain 4-131) of over 256 µg/mL and an MIC (S. aureus strain 4-133) of 256 µg/mL (≈ 223 µM). For the same compound, the MIC (S. aureus strain 4-134) was over 256 µg/mL, the MIC (S. aureus strain 4-138) was 4 µg/mL (≈ 3.48 µM) and the MIC (S. aureus strain 4-139) was 8 µg/mL (≈ 6.95 µM). It also gave an MIC (S. aureus strain 4-140) of 16 µg/mL (≈ 13.9 µM), an MIC (S. aureus strain 4-144) of 16 µg/mL (≈ 13.9 µM) and an MIC (S. aureus strain 4-153) of 16 µg/mL (≈ 13.9 µM). It also gave an MIC (S. aureus strain 4-159) of 16 µg/mL (≈ 13.9 µM), an MIC (S. aureus strain 4-172) of 8 µg/mL (≈ 6.95 µM) and an MIC (S. aureus strain 4-173) of 16 µg/mL (≈ 13.9 µM). For the same compound, the CMC [1] was about 70 µg/mL.

Compound `CCCCCCCCCCC[C@@H](O)CC(=O)N[C@@H](Cc1c[nH]c2ccccc12)C(=O)N[C@@H](CO)C(=O)N[C@H](Cc1c[nH]c2ccccc12)C(=O)N[C@@H](Cc1ccccc1)C(=O)N[C@@H](C(=O)N[C@@H](C)C(=O)N[C@H](C(=O)O)C(C)C)[C@H](C)O` [13R] ({Tetradecanoyl(3R-OH)}-WS[dW]F[dT]AV-OH) has an MIC (S. aureus strain 4-121) of 256 µg/mL (≈ 228 µM), an MIC (S. aureus strain 4-131) of over 256 µg/mL and an MIC (S. aureus strain 4-133) of over 256 µg/mL. It also gave an MIC (S. aureus strain 4-134) of over 256 µg/mL, an MIC (S. aureus strain 4-138) of 16 µg/mL (≈ 14.3 µM) and an MIC (S. aureus strain 4-139) of 8 µg/mL (≈ 7.13 µM). The MIC (S. aureus strain 4-140) was 16 µg/mL (≈ 14.3 µM), the MIC (S. aureus strain 4-144) was 8 µg/mL (≈ 7.13 µM) and the MIC (S. aureus strain 4-153) was 32 µg/mL (≈ 28.5 µM). The MIC (S. aureus strain 4-159) was 16 µg/mL (≈ 14.3 µM), the MIC (S. aureus strain 4-172) was 8 µg/mL (≈ 7.13 µM) and the MIC (S. aureus strain 4-173) was 8 µg/mL (≈ 7.13 µM). The CMC [1] was about 12 µg/mL.

Compound `CCCCCCCCCCC[C@H](O)CC(=O)N[C@@H](Cc1c[nH]c2ccccc12)C(=O)N[C@@H](CO)C(=O)N[C@H](Cc1c[nH]c2ccccc12)C(=O)N[C@@H](Cc1ccccc1)C(=O)N[C@@H](C(=O)N[C@@H](C)C(=O)N[C@H](C(=O)O)C(C)C)[C@H](C)O` [13S] ({Tetradecanoyl(3S-OH)}-WS[dW]F[dT]AV-OH) has an MIC (S. aureus strain 4-121) of 256 µg/mL (≈ 228 µM), an MIC (S. aureus strain 4-131) of over 256 µg/mL and an MIC (S. aureus strain 4-133) of over 256 µg/mL. It also gave an MIC (S. aureus strain 4-134) of over 256 µg/mL, an MIC (S. aureus strain 4-138) of 16 µg/mL (≈ 14.3 µM) and an MIC (S. aureus strain 4-139) of 8 µg/mL (≈ 7.13 µM). The MIC (S. aureus strain 4-140) was 16 µg/mL (≈ 14.3 µM), the MIC (S. aureus strain 4-144) was 16 µg/mL (≈ 14.3 µM) and the MIC (S. aureus strain 4-153) was 32 µg/mL (≈ 28.5 µM). For the same compound, the MIC (S. aureus strain 4-159) was 8 µg/mL (≈ 7.13 µM), the MIC (S. aureus strain 4-172) was 8 µg/mL (≈ 7.13 µM) and the MIC (S. aureus strain 4-173) was 8 µg/mL (≈ 7.13 µM). The CMC [1] was about 40 µg/mL.
